Experiment [1] relates to TRPV1. Description: Calcium imaging of DRG neurons: TRPV1 sensitization (two capsaicin stimuli, Δratio). It counts as cell-based, mice. How it is done: (§1) DRG primary cultures were prepared as described previously (Brenneis et al., 2011 b). Briefly, twenty to thirty murine dorsal roots ganglia (DRGs) were dissected from spinal segments and transferred directly into ice-cold Hanks' balanced salt solution with CaCI2 and MgCI2 (lnvitrogen, Carlsbad, Calif., USA). The DRGs were than incubated with Neurobasal Medium (lnvitrogen, Carlsbad, Calif., USA) containing 500 U/ml collagenase (Sigma, Deisenhofen, Germany) and 2.5 U/ml dispase II (Roche, Mannheim, Germany) for 75 mins at 37° C. After removal of the collagenase/dispase-solution cells were washed three times with medium containing 10% FCS, penicillin/streptomycin/gentamycin (lnvitrogen, Carlsbad, Calif., USA) and incubated in 0.05% trypsin for 10 min at 37° C. After two washing steps, the cells were mechanically dissociated with a 1 ml pipette and plated on Poly-L-lysine (Sigma) coated coverslips. After incubation at 37° C. for 2 h, Neurobasal Medium containing glutamine (2 mm), penicillin (100 U/ml), streptomycin (100 μg/ml), B-27 and gentamicin (50 μg/ml) was added to the cells and incubated overnight. The neurons were used for Calcium imaging the next day.
Calcium-imaging experiments were performed with a Leica calcium-imaging setup, consisting of a Leica DMI 4000 b inverted microscope equipped with a DFC360 FX (CCD) camera, Fura-2 filters, and an N-Plan 10×/0.25 Ph1 objective (all from Leica), was used. Images were taken every 2 s and were processed with the LAS AF-software (Leica). For each experiment, an area with large cell numbers 24 h after preparation (see DRG primary cultures) was chosen and 40-110 cells were monitored simultaneously. Cells were loaded with 5 μM fura-2-AM-ester (Biotium), incubated for 45-60 min at 37° C. and washed with ringer solution (145 mM NaCI, 1.25 mM CaCl2, 1 mM MgCl2, 5 mM KCI, 10 mM D-glucose, and 10 mM HEPES, adjusted to pH 7.3). Baseline measurements were performed with ringer solution at a flow rate of 1-2 ml/min at room temperature. For the activation of TRPV1 we used a solution of 200 nM capsaicin (Sigma), for TRPA1 activation 50 μM allyl isothiocyanate (AITC, Fluka Analytic) and for TRPM8 100 μM L-menthol (Sigma) dissolved in ringer solution. For TRP-channel sensitization, cells were incubated for 2 mins with different concentrations (50 nM-1000 nM) of (±) 9-HODE (Cayman) or (±) 13-HODE (Cayman) before the second stimulus took place. For control stimulations, the corresponding volume of DMSO (Sigma) was mixed in ringer solution and applied with the same flow rate. 10 μM of the PKA inhibitor H89 (Tocris) or 1 μM of the PKC inhibitor GF1 09203X (Tocris) was co-incubated with fura-2 for 45 mins. As positive control for PKA activation 40 iJM 8-bromo-cAMP (Cayman) and for PKC activation 500 nM bradykinin (Cayman) was used. At the end of each measurement, 50 mM KCl was applied to identify neurons.

For experiment [2], the target named is T1, G2A receptor (GPR132) (Homo sapiens, UniProt Q9UNW8).
T1 sequence (Q9UNW8 1-380): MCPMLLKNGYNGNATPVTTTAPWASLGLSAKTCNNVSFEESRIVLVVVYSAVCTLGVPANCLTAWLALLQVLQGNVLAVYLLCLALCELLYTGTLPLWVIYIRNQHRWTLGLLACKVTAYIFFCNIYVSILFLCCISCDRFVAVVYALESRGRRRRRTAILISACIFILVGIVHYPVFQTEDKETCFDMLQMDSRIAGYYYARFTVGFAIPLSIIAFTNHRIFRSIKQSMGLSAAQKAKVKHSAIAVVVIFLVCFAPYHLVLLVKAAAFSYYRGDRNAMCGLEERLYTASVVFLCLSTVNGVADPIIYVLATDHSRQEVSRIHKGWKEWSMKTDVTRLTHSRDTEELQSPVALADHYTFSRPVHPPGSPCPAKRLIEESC
The note with it: heterologous expression system; cited from earlier work.

Experiment [3] has as its target T2, TRPM8 (Mus musculus, UniProt Q8R4D5).
T2 construct: endogenous in cells; host or cells: primary murine dorsal root ganglion (DRG) neurons
As to the kind of experiment: Calcium imaging of DRG neurons: TRPM8 sensitization (menthol). In kind it is cell-based, mice. The note with it: activated with menthol 100 μM. How it is done:
as §1, with “After incubation at 37° C. for 2 h, Neurobasal Medium containing glutamine (2 mm), penicillin (100 U/ml), streptomycin (100 μg/ml), B-27 and gentamicin (50 μg/ml) was added to the cells and incubated overnight. The neurons were used for Calcium imaging the next day.” left out
(§2) Calcium-imaging experiments were performed with a Leica calcium-imaging setup, consisting of a Leica DMI 4000 b inverted microscope equipped with a DFC360 FX (CCD) camera, Fura-2 filters, and an N-Plan 10×/0.25 Ph1 objective (all from Leica), was used. […] For each experiment, an area with large cell numbers 24 h after preparation (see DRG primary cultures) was chosen and 40-110 cells were monitored simultaneously. […]

Experiment [4] concerns the target T1, G2A receptor (GPR132). Description: Calcium in HEK cells transfected with G2A (FURA-2). It counts as cell-based. Also noted: expressed in transfected cells. To be noted: HEK cells overexpressing G2A, 9-HODE 1 μM.
The target of experiment [5] is T1, G2A receptor (GPR132). As to the kind of experiment: Calcium flux in COS-1 cells cotransfected with aequorin and G2A. It counts as cell-based. Also noted: expressed in transfected cells. To be noted: COS-1 cells transfected with GPR132 and aequorin, 10 nM-10 μM. For orientation: Calcium assays in cells follow changes in intracellular calcium, usually with a dye or a luminescent sensor.
Description: For studies of heterologously expressed G2A receptor, COS-1 cells were seeded in white walls-clear bottom 96-well plates and transfected with a plasmid encoding a calcium-sensitive bioluminescent fusion protein between aequorin and GFP (Baubet et al., 2000) together with plasmid containing cDNA for G2A or control DNA (empty vector, mock) at a concentration of 50 ng/well by using FuGENE 6 reagent (Promega) following manufacturer's instructions. Forty eight hours later, cells were loaded with 5 μM coelenterazine h (Invitrogen) in HBSS containing 1.8 mM CaCl2 and 10 mM glucose for 2 h at 37° C. Measurements were performed by using a luminometric plate reader (Flexstation 3). The area under each calcium transient was calculated by using SoftMaxPro software and expressed as area under the curve (AUC).

Experiment [6] deals with T3, TRPA1 (Mus musculus, UniProt Q8BLA8).
T3 construct: endogenous in cells; host or cells: primary murine dorsal root ganglion (DRG) neurons
Description: Calcium imaging of DRG neurons: TRPA1 sensitization (allyl isothiocyanate). In kind it is cell-based, mice. The note with it: activated with AITC 50 μM. As for the experimental part: as §1, with “After incubation at 37° C. for 2 h, Neurobasal Medium containing glutamine (2 mm), penicillin (100 U/ml), streptomycin (100 μg/ml), B-27 and gentamicin (50 μg/ml) was added to the cells and incubated overnight. The neurons were used for Calcium imaging the next day.” left out
as §2

The subject of experiment [7] is DRG neurons. As to the kind of experiment: Neuronal CGRP release from DRG neurons. It counts as cell-based, mice. To be noted: 9-HODE 1 μM with capsaicin 400 nM, 10 min. As for the experimental part:
For the determination of neuronal calcitonin gene-related peptide (CGRP) release, dorsal root ganglia (DRGs) neurons were isolated from mice as previously described (Brenneis et al., 2011 a). Briefly, DRG cultures were stimulated for 10 m in with 1 μM (±) 9-HODE (Cayman) alone or in combination with 400 nM capsaicin (Sigma). Cultures supplemented with capsaicin alone served as control. CGRP concentrations in supernatants were analysed utilizing the rat CGRP Enzyme ImmunoAssay Kit (SPI-Bio, Montigny, France) according to the manufacturer's instructions. Absorption was measured with the help of the Spectra Max 250 (Molecular Devices, lsmaning, Germany)

“Also recorded” adds a separate entry of the source.

T2 sequence (Q8R4D5 whole entry): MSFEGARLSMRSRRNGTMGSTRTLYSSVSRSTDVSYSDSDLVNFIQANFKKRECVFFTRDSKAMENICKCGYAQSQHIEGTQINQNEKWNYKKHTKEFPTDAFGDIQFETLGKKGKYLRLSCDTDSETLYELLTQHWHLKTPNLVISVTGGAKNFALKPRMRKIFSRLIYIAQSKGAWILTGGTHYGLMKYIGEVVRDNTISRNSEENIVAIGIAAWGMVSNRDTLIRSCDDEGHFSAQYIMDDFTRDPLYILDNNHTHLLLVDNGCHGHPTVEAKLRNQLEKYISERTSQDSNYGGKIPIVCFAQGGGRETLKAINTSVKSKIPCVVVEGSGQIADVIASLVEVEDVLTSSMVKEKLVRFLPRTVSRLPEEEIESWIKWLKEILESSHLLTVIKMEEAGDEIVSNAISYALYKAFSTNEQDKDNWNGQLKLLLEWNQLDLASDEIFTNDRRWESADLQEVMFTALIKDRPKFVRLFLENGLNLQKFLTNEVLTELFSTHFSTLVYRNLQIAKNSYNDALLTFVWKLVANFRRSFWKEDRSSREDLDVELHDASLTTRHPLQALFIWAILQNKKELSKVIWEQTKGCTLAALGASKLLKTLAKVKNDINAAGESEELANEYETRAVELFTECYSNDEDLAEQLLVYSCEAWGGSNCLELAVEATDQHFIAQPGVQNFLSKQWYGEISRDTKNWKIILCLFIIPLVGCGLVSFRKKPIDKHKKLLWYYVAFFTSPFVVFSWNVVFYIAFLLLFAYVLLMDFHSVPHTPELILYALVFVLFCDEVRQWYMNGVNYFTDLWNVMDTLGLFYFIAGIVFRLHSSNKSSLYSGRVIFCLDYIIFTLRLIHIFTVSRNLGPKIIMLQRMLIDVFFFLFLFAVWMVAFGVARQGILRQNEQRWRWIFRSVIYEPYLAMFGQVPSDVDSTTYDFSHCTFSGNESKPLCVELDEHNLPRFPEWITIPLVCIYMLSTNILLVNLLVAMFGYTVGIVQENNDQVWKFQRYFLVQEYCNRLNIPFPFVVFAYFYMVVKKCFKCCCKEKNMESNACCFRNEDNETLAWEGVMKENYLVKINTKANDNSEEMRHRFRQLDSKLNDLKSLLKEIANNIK
T3 sequence (Q8BLA8 whole entry): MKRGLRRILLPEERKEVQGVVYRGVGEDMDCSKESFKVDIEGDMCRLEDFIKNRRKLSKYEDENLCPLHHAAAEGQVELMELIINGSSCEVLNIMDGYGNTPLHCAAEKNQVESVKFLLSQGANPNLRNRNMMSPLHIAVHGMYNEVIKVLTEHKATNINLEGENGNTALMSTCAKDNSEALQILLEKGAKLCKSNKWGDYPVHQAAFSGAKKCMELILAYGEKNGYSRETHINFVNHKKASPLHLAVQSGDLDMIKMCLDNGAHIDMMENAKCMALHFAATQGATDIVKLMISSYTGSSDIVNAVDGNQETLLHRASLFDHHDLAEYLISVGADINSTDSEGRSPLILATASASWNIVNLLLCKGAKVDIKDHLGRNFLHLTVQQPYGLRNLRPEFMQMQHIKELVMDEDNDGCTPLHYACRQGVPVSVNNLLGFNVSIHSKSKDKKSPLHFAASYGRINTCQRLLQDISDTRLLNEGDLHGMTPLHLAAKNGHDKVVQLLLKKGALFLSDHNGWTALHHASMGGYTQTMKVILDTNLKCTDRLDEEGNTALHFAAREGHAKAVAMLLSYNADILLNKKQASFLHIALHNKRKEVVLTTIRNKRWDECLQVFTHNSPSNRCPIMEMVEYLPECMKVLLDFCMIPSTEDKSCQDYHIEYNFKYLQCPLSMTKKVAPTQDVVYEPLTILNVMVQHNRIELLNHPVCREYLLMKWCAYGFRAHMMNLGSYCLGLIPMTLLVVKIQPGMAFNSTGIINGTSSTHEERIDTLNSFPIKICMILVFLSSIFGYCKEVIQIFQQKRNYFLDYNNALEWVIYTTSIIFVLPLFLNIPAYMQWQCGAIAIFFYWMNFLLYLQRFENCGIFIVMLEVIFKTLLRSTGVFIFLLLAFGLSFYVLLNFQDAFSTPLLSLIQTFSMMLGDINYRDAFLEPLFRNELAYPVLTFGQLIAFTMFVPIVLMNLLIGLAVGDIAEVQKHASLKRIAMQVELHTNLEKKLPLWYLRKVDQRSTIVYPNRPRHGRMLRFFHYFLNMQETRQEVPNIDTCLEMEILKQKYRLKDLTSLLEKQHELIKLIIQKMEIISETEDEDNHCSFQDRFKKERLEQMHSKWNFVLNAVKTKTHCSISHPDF

On to `CCCCC/C=C\C=C\C(O)CCCCCCCC(=O)O` (stereo not drawn) [9-HODE, 9-hydroxy-10E,12Z-octadecadienoic acid], for which the “9-HODE-induced TRPV1 sensitization in G2A-deficient DRG neurons” value in experiment [1] (DRG cultures of G2A-deficient mice, 9-HODE 200 nM 120 s) was “not in G2A-deficient mice; also recorded: absent”. The “sensitization of TRPV1 (Δratio of first and second capsaicin stimulus)” value in experiment [1] (DRG neurons, lipid incubated 2 minutes before second capsaicin stimulus, 0 to 1000 nM) is reported as “dose-dependently sensitizes the TRPV1 channel; also recorded: concentration-dependently induced a sensitization of TRPV1”. In addition, the “calcium flux of second vs first capsaicin stimulus (Δratio)” value in experiment [1] (wildtype DRG neurons, lipid 200 nM 120 s, capsaicin 200 nM 30 s) is given as “increased calcium flux compared to the first stimulus”. For the same compound, the “activation of the G2A receptor” value in experiment [2] was “can activate the G2A receptor”. In addition, the “sensitizing effects for TRPM8” value in experiment [3] is “no sensitizing effects”. Besides, in experiment [4], the intracellular calcium concentrations entry was “caused calcium-release; also recorded: increased intracellular calcium concentrations”. Moreover, in experiment [5], the “calcium release (bioluminescence of aequorin)” value was “caused calcium release in a concentration-dependent manner”. In addition, in experiment [6], the “sensitizing effects for TRPA1” value is on record as “no sensitizing effects”. Also, the “capsaicin-dependent CGRP release” value in experiment [7] is on record as “increased the capsaicin-dependent CGRP release significantly”.

The record behind these values is patent US20190211397A1, “INHIBITORS OF GPR132 FOR USE IN PREVENTING AND/OR TREATING CHEMOTHERAPY-INDUCED NEUROPATHIC PAIN” (Fraunhofer-Gesellschaft zur Foerderung der angewandten …, priority 2016, published 2019).
